US7312245B2 (priority 2001, dated 2007)
Read-outs that look alike come from different tables or passages of the source.

Tests used:
Type in all cases: in vivo
Pyricularia oryzae [1] = settings: spray application of wettable powder diluted to 500 ppm; rice Koshihikari 2-leaf stage; spray-inoculated with Pyricularia oryzae spores; examined after 7 days
Pyricularia oryzae [2] = settings: granules applied to water surface at 3 kg/10 ares; rice Koshihikari; inoculated 30 days after application; lesions checked after 1 week
Pyricularia oryzae [3] = settings: nursery box treated with granules 50 g per box; rice Koshihikari; inoculated 30 days after transplantation; lesions counted after 1 week

SMILES	Grade of Effect (preventive value, rice blast controlling effect) (Pyricularia oryzae [1])	Grade of Effect (preventive value, rice blast controlling effect) (Pyricularia oryzae [2])	Grade of Effect (preventive value, rice blast controlling effect) (Pyricularia oryzae [3])
CC(C)COC(=O)NC(CNC(=O)c1ccc(Cl)cc1)C(C)C (stereo not drawn) [compound 384]	A (100%)	A (From 80% to 100%)	A (From 80% to 100%)
Cc1ccc(C(=O)NCC(C)(NC(=O)OC(C)(C)C)C(C)C)cc1 (stereo not drawn) [compound 469]	B (80% or more and less than 100%)	B (50% or more and less than 80%)	B (50% or more and less than 80%)
CC(C)C(CNC(=O)c1ccc(Cl)cc1)NC(=O)OC(C)C(C)C (stereo not drawn) [compound 1228]	A (100%)	A (From 80% to 100%)	A (From 80% to 100%)
CC(C)OC(=O)NC(CNC(=O)c1ccc2ccccc2c1)C(C)C (stereo not drawn) [compound 242]	A (100%)	A (From 80% to 100%)	A (From 80% to 100%)
Cc1ccc(C(=O)NCC(NC(=O)OC(C)(C)C)C(C)C)cc1 (stereo not drawn) [compound 464]	B (80% or more and less than 100%)	B (50% or more and less than 80%)	B (50% or more and less than 80%)
C#CCOC(=O)NC(CNC(=O)c1ccc(Cl)cc1)C(C)C (stereo not drawn) [compound 804]	A (100%)	A (From 80% to 100%)	A (From 80% to 100%)
CC(C)OC(=O)NC(CNC(=O)c1ccccc1)C(C)C (stereo not drawn) [compound 236]	A (100%)	A (From 80% to 100%)	A (From 80% to 100%)
CC(C)C(CNC(=O)c1ccc(Cl)cc1)NC(=O)OCCS(C)(=O)=O (stereo not drawn) [compound 1273]	A (100%)	A (From 80% to 100%)	A (From 80% to 100%)
CCc1ccc(C(=O)NCC(NC(=O)OC(C)C)C(C)C)cc1 (stereo not drawn) [compound 241]	A (100%)	A (From 80% to 100%)	A (From 80% to 100%)
Cc1ccc(C(=O)NCC(NC(=O)OC(C)C)C(C)C)cc1 (stereo not drawn) [compound 240]	A (100%)	A (From 80% to 100%)	A (From 80% to 100%)
Cc1ccc(C(=O)NCC(NC(=O)OCC2CC2)C(C)C)cc1 (stereo not drawn) [compound 1186]	A (100%)	A (From 80% to 100%)	A (From 80% to 100%)
CCC(CNC(=O)Oc1ccccc1)NC(=O)OC (stereo not drawn) [Formula (8), reference compound]	D (less than 50%)	C (less than 50%)	C (less than 50%)
COC(=O)NC(CNC(=O)c1ccccc1)c1ccccc1 (stereo not drawn) [compound 66, N-(methoxycarbonyl)-N′-benzoyl-1-phenyl-1,2-ethylenediamine]	A (100%)	A (From 80% to 100%)	A (From 80% to 100%)
Cc1ccc(C(=O)NCC(NC(=O)OC(C)C(C)C)C(C)C)cc1 (stereo not drawn) [compound 1231]	A (100%)	A (From 80% to 100%)	A (From 80% to 100%)
CC(C)C(CNC(=O)c1ccc(Cl)cc1)NC(=O)OCc1ccco1 (stereo not drawn) [compound 1123]	A (100%)	A (From 80% to 100%)	A (From 80% to 100%)
Cc1ccc(COC(=O)NC(CNC(=O)c2ccc(Cl)cc2)C(C)C)cc1 (stereo not drawn) [compound 1049]	A (100%)	A (From 80% to 100%)	A (From 80% to 100%)
Cc1ccc(C(=O)NCC(C)(NC(=O)OC(C)c2ccccc2)C(C)C)cc1 (stereo not drawn) [compound 1081]	A (100%)	A (From 80% to 100%)	A (From 80% to 100%)
CC(OC(=O)NC(CNC(=O)c1ccc(Cl)cc1)C(C)C)c1ccccc1 (stereo not drawn) [compound 1078]	A (100%)	A (From 80% to 100%)	A (From 80% to 100%)
Cc1ccc(C(=O)NCC(C)NC(=O)OC(C)C)cc1 (stereo not drawn) [compound 215]	A (100%)	A (From 80% to 100%)	A (From 80% to 100%)
Cc1ccc(C(=O)NCC(NC(=O)OC(C)(C)C)c2ccccc2)cc1 (stereo not drawn) [compound 504, N-(t-butoxycarbonyl)-N′-(4-methylbenzoyl)-1-phenyl-1,2-ethylenediamine]	B (80% or more and less than 100%)	B (50% or more and less than 80%)	B (50% or more and less than 80%)
CC(C)C(CNC(=O)c1ccc(Cl)cc1)NC(=O)OCC(C)(C)C (stereo not drawn) [compound 1198]	A (100%)	A (From 80% to 100%)	A (From 80% to 100%)
Cc1ccc(C(=O)NCC(NC(=O)OC(C)C)c2ccc(Cl)cc2)cc1 (stereo not drawn) [compound 284]	A (100%)	A (From 80% to 100%)	A (From 80% to 100%)
